According to patent US20240025919A1, “AZA-TETRACYCLIC OXAZEPINE COMPOUNDS AND USES THEREOF” (Genentech, Inc., priority 2022, published 2024):
Values joined by “and” are separate entries in the source; they are usually repeats but may differ in a detail not shown here. Identical values can stand only once. Like-named read-outs stand apart in the source and are kept apart here.

Assays:
KRAS WT [1] = molecular target: T1, KRAS WT (Homo sapiens (Human), UniProt P01116); assay: KRAS WT Biochemical Assay, BODIPY-GDP Exchange TR-FRET (Example 501; 3 nM KRAS WT, 3 nM SOS1, 60-minute incubation)
T1 sequence (P01116-2 other isoform, or with tags, fused parts or gaps): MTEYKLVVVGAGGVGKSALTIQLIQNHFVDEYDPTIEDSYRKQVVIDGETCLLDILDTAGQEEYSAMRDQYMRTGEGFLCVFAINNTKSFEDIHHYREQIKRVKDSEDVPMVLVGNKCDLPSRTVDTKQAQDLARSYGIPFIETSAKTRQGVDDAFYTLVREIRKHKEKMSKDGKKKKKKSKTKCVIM
In short: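 SOS1-mediated exchange assay: 3 nM biotin-KRAS WT with terbium-streptavidin, started with 3 nM SOS1 and 300 nM BODIPY-GDP, HEPES pH 7.5 with MgCl2. TR-FRET (520/490 nm) read after 60 min; normalized to DMSO and full-inhibition control, IC50 from 4-parameter Hill fit.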

[2] = system: PC-9 (KRAS wild type human lung adenocarcinoma cell line); assay: KRAS 3D-Cell Proliferation Assay, PC-9 (CellTiter-Glo 3D, 7 days); type: cell-based; conditions: PC-9 3D culture, read-out: Prolif PC9 3D ATP IC50
Procedure: (§1) Example 503: KRAS 3D-Cell Proliferation Assays. Cellular potencies of compounds are assessed by evaluating inhibition of proliferation in 3D cultures of homozygous mutant KRAS G12D human pancreatic cell lines (AsPC-1 and HPAC) as compared to a KRAS wild type human lung adenocarcinoma cell line (PC-9 and/or H1975). Cells are seeded into 384-well black round-bottom, ultra-low attachment assay plates in 50 uL cell growth medium (RPMI-1640 with 10% fetal bovine serum and 2 mM L-glutamine). After overnight incubation at 37° C. and 5% CO2, compounds solubilized in DMSO are added as dilution series to the wells in a total volume of 150 nL (0.3% DMSO final). The cells are incubated for 7 days at 37° C. and 5% CO2. Cell proliferation is quantitated by addition of 40 uL/well of CellTiter-GloO 3D (Promega), and the well contents are mixed 20× at high speed using liquid handling automation workstation (Bravo with 384-well head) and centrifuged at 1500 rpm for 2 minutes to eliminate bubbles. This reagent in combination with mechanical disruption releases the cellular ATP to promote activity in a luciferase-based enzyme/substrate chemiluminescent detection system. After a 30-minute incubation under ambient conditions with shaking and an additional 10 minutes without shaking, the luminescence is read on a plate reader (e.g. EnVision [PerkinElmer]). The results are normalized to percent inhibition based on the following control samples: DMSO (0% inhibition) and 1 uM staurosporine (100% inhibition). The normalized luminescence results are plotted against compound concentration, and the data are fit to a 4-parameter Hill equation to determine the IC50 values.

KRAS G12D = KRAS G12D (Homo sapiens (Human), UniProt P01116, G12D); assay: KRAS G12D LoEnz Biochemical Assay, BODIPY-GDP Exchange TR-FRET (SOS1-mediated nucleotide exchange); conditions: read-out: KRas (G12D) GDP HTRF IC50
Chain of KRAS G12D (P01116-2 other isoform, or with tags, fused parts or gaps G12D): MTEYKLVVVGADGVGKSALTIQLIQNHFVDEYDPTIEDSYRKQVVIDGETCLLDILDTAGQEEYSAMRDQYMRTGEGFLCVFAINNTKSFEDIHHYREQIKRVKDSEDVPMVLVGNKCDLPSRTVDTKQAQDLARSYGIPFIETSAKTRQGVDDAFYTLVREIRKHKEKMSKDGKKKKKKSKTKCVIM

KRAS WT [3] = molecular target: T1, KRAS WT; assay: KRAS WT Biochemical Assay, BODIPY-GDP Exchange TR-FRET (Example 502; 0.06 nM KRAS WT, 15 nM GDP, 300 nM SOS1, 120-minute incubation); conditions: read-out: KRas HTRF IC50
In short: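 Biotin-tagged recombinant KRAS WT (0.06 nM) preloaded with 15 nM GDP and Tb-streptavidin, 10 min RT, then exchange started with 300 nM SOS1 plus 300 nM BODIPY-GDP in HEPES pH 7.5 buffer with MgCl2. TR-FRET 520/490 ratio read after 120 min; normalized to DMSO and full-inhibition control; IC50 from 4-parameter fit.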

[4] = system: HPAC (homozygous mutant KRAS G12D human pancreatic cell line); assay: KRAS 3D-Cell Proliferation Assay, HPAC (CellTiter-Glo 3D, 7 days); type: cell-based; conditions: HPAC 3D culture, read-out: Prolif HPAC 3D ATP IC50
Procedure: as §1

[5] = system: H1975 (KRAS wild type human lung adenocarcinoma cell line); assay: KRAS 3D-Cell Proliferation Assay, H1975 (CellTiter-Glo 3D, 7 days); type: cell-based; conditions: H1975 3D culture, read-out: Prolif H1975 3D ATP IC50
Procedure: as §1

[6] = read-out: KRas(wt) GDP HTRF IC50

With `Cc1cc(N)nc(-c2nc3c4c(nc(OC[C@]56CCN5CC(F)(F)C6)nc4c2F)N2C[C@H]4CC[C@H](N4)[C@H]2[C@H](C)O3)c1C(F)(F)F` (single isomer, unassigned) [Compound 45] the IC50 (KRAS WT [1]; [6]) was 69.4 nM and 319 nM and the IC50 ([2]; Homo sapiens, PC-9, 168 h) was 20000 nM.
Compound `C#Cc1c(F)ccc2cc(O)cc(-c3nc4c5c(nc(OC[C@@]67CCCN6C[C@H](F)C7)nc5c3F)N3C[C@H]5CC[C@H](N5)[C@H]3CO4)c12` [Compound 81, 5-Ethynyl-6-fluoro-4-((5aS,6S,9R)-1-fluoro-12-(((2R,7aS)-2-fluorotetrahydro-1H-pyrrolizin-7a(5H)-yl)methoxy)-5a,6,7,8,9,10-hexahydro-5H-4-oxa-3,10a,11,13,14-pentaaza-6,9-methanonaphtho[1,8-ab]heptalen-2-yl)naphthalen-2-ol] has an IC50 (KRAS G12D) of 0.085 nM, an IC50 ([2]; Homo sapiens, PC-9, 168 h) of 20000 nM and an IC50 (KRAS WT [3]) of 0.448 nM.
`C#Cc1c(F)ccc2cccc(-c3nc4c5c(ncnc5c3F)N3C[C@H]5CC[C@H](N5)[C@H]3[C@H](C)O4)c12` [Compound 56, (5S,5aS,6S,9R)-2-(8-ethynyl-7-fluoronaphthalen-1-yl)-1-fluoro-5-methyl-5a,6,7,8,9,10-hexahydro-5H-4-oxa-3,10a,11,13,14-pentaaza-6,9-methanonaphtho[1,8-ab]heptalene] was tested, and the IC50 (KRAS WT [1]; [6]) was 46500 nM, the IC50 (KRAS G12D) was 942 nM and the IC50 ([2]; Homo sapiens, PC-9, 168 h) was 20000 nM.
Work on `C[C@@H]1Oc2nc(-c3nc(N)cc4ccccc34)c(F)c3nc(OC[C@@]45CCCN4C[C@H](F)C5)nc(c23)N2C[C@H]3CC[C@H](N3)[C@@H]12` [Compound 41, 1-((5S,5aS,6S,9R)-1-fluoro-12-(((2R,7aS)-2-fluorotetrahydro-1H-pyrrolizin-7a(5H)-yl)methoxy)-5-methyl-5a,6,7,8,9,10-hexahydro-5H-4-oxa-3,10a,11,13,14-pentaaza-6,9-methanonaphtho[1,8-ab]heptalen-2-yl)isoquinolin-3-amine] yielded an IC50 (KRAS WT [1]; [6]) of 296 nM, an IC50 (KRAS G12D) of 6.35 nM and an IC50 ([2]; Homo sapiens, PC-9, 168 h) of 20000 nM.
`C[C@@H]1Oc2nc(-c3cccc4cccc(Cl)c34)c(F)c3nc(OCC45CCN4CC(F)(F)C5)nc(c23)N2C[C@H]3CC[C@H](N3)[C@@H]12` (single isomer, unassigned) [Compound 21] was tested, and the IC50 (KRAS WT [1]; [6]) was 3890 nM and 1400 nM and the IC50 [2] was 8130 nM.
Compound `C#Cc1cccc2cncc(-c3nc4c5c(nc(OC[C@@]67CCCN6C[C@H](F)C7)nc5c3F)N3C[C@H]5CC[C@H](N5)[C@H]3[C@H](C)O4)c12` [Compound 39, (5S,5aS,6S,9R)-2-(5-Ethynylisoquinolin-4-yl)-1-fluoro-12-(((2R,7aS)-2-fluorotetrahydro-1H-pyrrolizin-7a(5H)-yl)methoxy)-5-methyl-5a,6,7,8,9,10-hexahydro-5H-4-oxa-3,10a,11,13,14-pentaaza-6,9-methanonaphtho[1,8-ab]heptalene] has an IC50 (KRAS WT [1]; [6]) of 76.1 nM, an IC50 (KRAS G12D) of 1.78 nM and an IC50 ([2]; Homo sapiens, PC-9, 168 h) of 20000 nM.
In the case of `C#Cc1cccc2cc(O)cc(-c3nc4c5c(ncnc5c3F)N3C[C@H]5CC[C@H](N5)[C@H]3[C@H](C)O4)c12` [Compound 54, 5-ethynyl-4-((5S,5aS,6S,9R)-1-fluoro-5-methyl-5a,6,7,8,9,10-hexahydro-5H-4-oxa-3,10a,11,13,14-pentaaza-6,9-methanonaphtho[1,8-ab]heptalen-2-yl)naphthalen-2-ol], the IC50 (KRAS WT [1]; [6]) is reported as 1980 nM, the IC50 (KRAS G12D) is reported as 17.8 nM and the IC50 ([2]; Homo sapiens, PC-9, 168 h) is reported as 20000 nM.
In the case of `Cc1cc(N)nc(-c2nc3c4c(nc(OC[C@@]56CCCN5C[C@H](F)C6)nc4c2F)N2C[C@H]4CC[C@H](N4)[C@H]2[C@H](C)O3)c1C(F)(F)F` [Compound 43, 6-((5S,5aS,6S,9R)-1-Fluoro-12-(((2R,7aS)-2-fluorotetrahydro-1H-pyrrolizin-7a(5H)-yl)methoxy)-5-methyl-5a,6,7,8,9,10-hexahydro-5H-4-oxa-3,10a,11,13,14-pentaaza-6,9-methanonaphtho[1,8-ab]heptalen-2-yl)-4-methyl-5-(trifluoromethyl)pyridin-2-amine], the IC50 (KRAS WT [1]; [6]) is reported as 16.6 nM, the IC50 (KRAS G12D) is reported as 0.598 nM and the IC50 ([2]; Homo sapiens, PC-9, 168 h) is reported as 20000 nM.
Compound `C#Cc1cccc2cc(O)cc(-c3nc4c5c(nc(OC[C@@]67CCCN6C[C@H](F)C7)nc5c3F)N3C[C@H]5CC[C@H](N5)[C@H]3[C@H](C)O4)c12` [Compound 11, 5-ethynyl-4-((5S,5aS,6S,9R)-1-fluoro-12-(((2R,7aS)-2-fluorotetrahydro-1H-pyrrolizin-7a(5H)-yl)methoxy)-5-methyl-5a,6,7,8,9,10-hexahydro-5H-4-oxa-3,10a,11,13,14-pentaaza-6,9-methanonaphtho[1,8-ab]heptalen-2-yl)naphthalen-2-ol] has an IC50 (KRAS WT [1]; [6]) of 0.38 nM, an IC50 (KRAS G12D) of 0.06 nM and an IC50 ([2]; Homo sapiens, PC-9, 168 h) of 20000 nM.
`C#Cc1c(F)ccc2cccc(-c3nc4c5c(nc(OCC67CCN6CC(F)(F)C7)nc5c3F)N3C[C@H]5CC[C@H](N5)[C@H]3[C@H](C)O4)c12` (stereo partly drawn) [Compound 22, (5S,5aS,6S,9R)-12-((3,3-difluoro-1-azabicyclo[3.2.0]heptan-5-yl)methoxy)-2-(8-ethynyl-7-fluoronaphthalen-1-yl)-1-fluoro-5-methyl-5a,6,7,8,9,10-hexahydro-5H-4-oxa-3,10a,11,13,14-pentaaza-6,9-methanonaphtho[1,8-ab]heptane] gave an IC50 (KRAS WT [1]; read-out: KRas HTRF IC50) of 9.95 nM and an IC50 [2] of 7410 nM.
In the case of `Cc1cc(N)c(F)c(-c2nc3c4c(ncnc4c2Cl)N2C[C@H]4CC[C@H](N4)[C@H]2[C@H](C)O3)c1C(F)(F)F` [Compound 93, 3-((5S,5aS,6S,9R)-1-chloro-5-methyl-5a,6,7,8,9,10-hexahydro-5H-4-oxa-3,10a,11,13,14-pentaaza-6,9-methanonaphtho[1,8-ab]heptalen-2-yl)-2-fluoro-5-methyl-4-(trifluoromethyl)aniline], the IC50 ([4]; Homo sapiens, HPAC, 168 h) is reported as 836 nM, the IC50 (KRAS G12D) is reported as 73.4 nM and the IC50 ([5]; Homo sapiens, NCI-H1975, 168 h) is reported as 20000 nM. The IC50 (KRAS WT [3]) was 14400 nM.
Work on `Cc1c(F)c(N)cc(-c2nc3c4c(nc(OC[C@@H]5C[C@H]6COCCN65)nc4c2F)N2C[C@H]4CC[C@H](N4)[C@H]2[C@H](C)O3)c1C(F)(F)F` (single isomer, unassigned) [159 (diast. 2)] yielded an IC50 ([4]; Homo sapiens, HPAC, 168 h) of 23.8 nM, an IC50 (KRAS G12D) of 0.23 nM and an IC50 ([5]; Homo sapiens, NCI-H1975, 168 h) of 1240 nM. For the same compound, the IC50 (KRAS WT [3]) was 48.1 nM.
Work on `Cc1c(F)c(N)cc(-c2nc3c4c(nc(OC[C@]56CCC[C@H]5N(C)CCC6)nc4c2F)N2C[C@H]4CC[C@H](N4)[C@H]2[C@H](C)O3)c1C(F)(F)F` (single isomer, unassigned) [126 (isomer 4)] yielded an IC50 ([4]; Homo sapiens, HPAC, 168 h) of 24.9 nM, an IC50 (KRAS G12D) of 0.37 nM and an IC50 ([5]; Homo sapiens, NCI-H1975, 168 h) of 2250 nM. For the same compound, the IC50 (KRAS WT [3]) was 90.3 nM.
Work on `Cc1c(F)c(N)cc(-c2nc3c4c(nc(OC[C@@]56CCC[C@H]5N(C)CCC6)nc4c2F)N2C[C@H]4CC[C@H](N4)[C@H]2[C@H](C)O3)c1C(F)(F)F` (single isomer, unassigned) [126 (isomer 3)] yielded an IC50 ([4]; Homo sapiens, HPAC, 168 h) of 3.28 nM, an IC50 (KRAS G12D) of 0.09 nM and an IC50 ([5]; Homo sapiens, NCI-H1975, 168 h) of 1430 nM. The IC50 (KRAS WT [3]) was 6.31 nM.
`Cc1cc(N)nc(-c2nc3c4c(nc(OC[C@@]56CCCN5C[C@H](F)C6)nc4c2F)N2C[C@H]4CC[C@H](N4)[C@H]2CO3)c1C(F)(F)F` [Compound 44, 6-((5aS,6S,9R)-1-fluoro-12-(((2R,7aS)-2-fluorotetrahydro-1H-pyrrolizin-7a(5H)-yl)methoxy)-5a,6,7,8,9,10-hexahydro-5H-4-oxa-3,10a,11,13,14-pentaaza-6,9-methanonaphtho[1,8-ab]heptalen-2-yl)-4-methyl-5-(trifluoromethyl)pyridin-2-amine] gave an IC50 (KRAS WT [1]; [6]) of 59 nM, an IC50 (KRAS G12D) of 0.68 nM and an IC50 ([2]; Homo sapiens, PC-9, 168 h) of 20000 nM.
With `Cc1c(F)c(N)cc(-c2nc3c4c(nc(OC[C@@]56CCCN5CC5(CC5(F)F)C6)nc4c2F)N2C[C@H]4CC[C@H](N4)[C@H]2[C@@H](C)O3)c1C(F)(F)F` (some centres unmarked) [compound 63] the IC50 [4] was 82.4 nM, the IC50 (KRAS G12D) was 0.15 nM and the IC50 [5] was 20800 nM. For the same compound, the IC50 (KRAS WT [3]) was 21.7 nM.
